Experimental data as given in the supplement of paper PMC10307832.

What was measured:
Assay in all cases: relative viability (nuclei count vs DMSO), 5 days (fraction); higher = more cells survive
[1] = compound: CN(C)CC1=CC(=CC=C1)N=C(C2=CC=CC=C2)C3=C(NC4=C3C=CC(=C4)C(=O)N(C)C)O + O=C(CCCCCCC(=O)Nc1ccccc1)NO [Vorinostat] (partner 1 µM)
Summary of the method: (§1)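 Lung cancer cell lines were pin-tool dosed in 1536-well plates on the day after seeding, with either a lone drug or a fixed anchor-drug dose plus five library-drug doses (not always all listed) in √10 steps. Nuclei were counted on 4× images after 5 days. Relative viability is the ratio of treated-well to vehicle-well nuclei counts, with each value a median of duplicate plates.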

[2] = compound: CN(C)CC1=CC(=CC=C1)N=C(C2=CC=CC=C2)C3=C(NC4=C3C=CC(=C4)C(=O)N(C)C)O + COc1cc2c(Oc3ccc(NC(=O)C4(C(=O)Nc5ccc(F)cc5)CC4)cc3F)ccnc2cc1OCCCN1CCOCC1 [Foretinib] (partner 0.25 µM)
Summary of the method: as §1

[3] = compound: CN(C)CC1=CC(=CC=C1)N=C(C2=CC=CC=C2)C3=C(NC4=C3C=CC(=C4)C(=O)N(C)C)O + NC(=O)Nc1cc(-c2cccc(F)c2)sc1C(=O)N[C@H]1CCCNC1 [AZD7762] (partner 0.2 µM)
Summary of the method: as §1

[4] = compound: CN(C)CC1=CC(=CC=C1)N=C(C2=CC=CC=C2)C3=C(NC4=C3C=CC(=C4)C(=O)N(C)C)O + CS(=O)(=O)N1CCN(Cc2cc3nc(-c4cccc5[nH]ncc45)nc(N4CCOCC4)c3s2)CC1 [Pictilisib] (partner 1 µM)
Summary of the method: as §1

Cell Line	relative viability ([1]; first compound 0.08 µM)	relative viability ([1]; first compound 0.253 µM)	relative viability ([1]; first compound 0.8 µM)	relative viability ([1]; first compound 2.53 µM)	relative viability ([1]; first compound 8 µM)	relative viability ([2]; first compound 0.08 µM)	relative viability ([2]; first compound 0.253 µM)	relative viability ([2]; first compound 0.8 µM)	relative viability ([2]; first compound 2.53 µM)	relative viability ([2]; first compound 8 µM)	relative viability ([3]; first compound 0.08 µM)	relative viability ([3]; first compound 0.253 µM)	relative viability ([3]; first compound 0.8 µM)	relative viability ([3]; first compound 2.53 µM)	relative viability ([3]; first compound 8 µM)	relative viability ([4]; first compound 0.08 µM)	relative viability ([4]; first compound 0.253 µM)	relative viability ([4]; first compound 0.8 µM)	relative viability ([4]; first compound 2.53 µM)	relative viability ([4]; first compound 8 µM)
A-427	0.887	0.86	0.89	0.872	0.873	1.07	1.17	1.07	0.986	0.883	0.75	0.666	0.712	0.676	0.631	0.751	0.693	0.902	0.803	0.706
NCI-H460	0.722	0.702	0.716	0.704	0.728	0.995	1.07	0.994	0.928	1.04	0.667	0.511	0.636		0.664	0.366	0.295	0.311	0.313	0.321
NCI-H2085	0.785	0.777	0.785	0.819	0.773	1	0.865	1.15	1.13	0.954	1.03	0.978	0.995	0.988	0.969	0.386	0.479	0.414	0.448	0.493
LOU-NH91	0.892	0.97	0.754	0.87	0.872	0.931	0.882	0.732	0.917	0.936	0.762	0.801	0.713	0.719	0.703	0.532	0.512	0.481	0.511	0.512
NCI-H1734	0.909	0.829	0.828	0.86	0.66	0.765	0.839	0.819	0.771	0.807	0.644	0.532	0.506	0.56	0.526	0.479	0.461	0.408	0.402	0.471
H3255	0.826	0.987		0.777	0.845	0.857	0.857	0.631	1.04	0.848	1.08	0.85	0.842	0.967	0.942	0.548	0.493	0.386	0.455	0.475
NCI-H2087	0.53	0.668	0.69	0.796	0.846	1	1.07	1.19	1.09	0.955	1.13	1.28	1.36	1.45	1.33	0.963	0.786	0.926	0.848	0.806
BEN	0.577	0.609	0.578	0.603	0.575	0.705	0.68	0.641	0.68	0.596	0.701	0.71	0.695	0.728	0.745	0.664	0.587	0.584	0.55	0.509
